Here are results for nine molecules from patent publication US20250332300A1 (priority 2024, published 2025).

Positions of bridges follow the written chain, without caps; N, C: chain ends. Non-standard residues stand in square brackets, D forms with d. *: point of attachment. X4 = 4‑(carboxymethyl)piperazine‑1‑carbonyl, O=C(O)CN1CCN(C(=O)*)CC1; DOTA = O=C(O)CN1CCN(CC(=O)O)CCN(CC(=O)*)CCN(CC(=O)O)CC1; Trp(5-OH) = N[C@@H](Cc1c[nH]c2ccc(O)cc12)C(=O)O; NMePhe(4-F) = CN[C@@H](Cc1ccc(F)cc1)C(=O)O; NMehPhe = CN[C@@H](CCc1ccccc1)C(=O)O; Aad = N[C@@H](CCCC(=O)O)C(=O)O; aThr = C[C@H](O)[C@H](N)C(=O)O; NMeK = CN[C@@H](CCCCN)C(=O)O; NMeDap = CN[C@@H](CN)C(=O)O; NMeC = CN[C@@H](CS)C(=O)O; NMeS = CN[C@@H](CO)C(=O)O; CproG = not defined here; Dap = NC[C@H](N)C(=O)O

One series concerns the target human EGFR (Homo sapiens, UniProt P00533). Nature of the series: SPR selectivity over close protein homologs, EGFR. It counts as binding. Particulars: protein homolog immobilized on a CM5 chip.
Series [1] addresses human Herstatin (a soluble truncated HER2 protein) (Homo sapiens, UniProt P04626). In words: SPR selectivity over close protein homologs, Herstatin. To be noted: protein homolog immobilized on a CM5 chip. The class given is binding.
Series [2] has as its target T1, human HER2 (23-652) (Homo sapiens, UniProt P04626). Nature of the series: TR-FRET competition assay for peptide potency, human HER2. It counts as binding. Also noted: towards human HER2 (23-652) and mouse HER2 (23-653); made in house; host or cells: mammalian cells. Particulars: read-out: huHER2 TR-FRET IC50. For orientation: In TR-FRET formats the signal depends on donor and acceptor labels being close together.

Series [3] addresses T2, mouse HER2 (23-653) (Mus musculus, UniProt P70424). In words: TR-FRET competition assay for peptide potency, mouse HER2. The class given is binding. Also noted: mouse HER2 (23-653) using a Cy5 labeled peptide as a probe; made in house; host or cells: mammalian cells. Particulars: TR-FRET competition with Cy5 labeled peptide probe, 0.1 nM mouse HER2, 24 h incubation; read-out: moHER2 TR-FRET IC50.

Series [4] concerns the target T2, mouse HER2 (23-653). Nature of the series: Surface plasmon resonance (SPR) for assessment of peptide affinity, mouse HER2. Further details: mouse HER2 (23-653) using a Cy5 labeled peptide as a probe; made in house. Particulars: SPR, mouse HER2 extracellular domain, 25° C., 1:1 binding model; read-out: moHER2-SPR-ONC KD. It counts as binding. The text has this: Each protein was immobilized either onto a SA sensorchip (Cytiva, BR-1005-31) or CM5 sensorchip (Cytiva, BR-1005-30) to a density of 800-2000 RU.
Target sequence in this assay (P70424 23-653): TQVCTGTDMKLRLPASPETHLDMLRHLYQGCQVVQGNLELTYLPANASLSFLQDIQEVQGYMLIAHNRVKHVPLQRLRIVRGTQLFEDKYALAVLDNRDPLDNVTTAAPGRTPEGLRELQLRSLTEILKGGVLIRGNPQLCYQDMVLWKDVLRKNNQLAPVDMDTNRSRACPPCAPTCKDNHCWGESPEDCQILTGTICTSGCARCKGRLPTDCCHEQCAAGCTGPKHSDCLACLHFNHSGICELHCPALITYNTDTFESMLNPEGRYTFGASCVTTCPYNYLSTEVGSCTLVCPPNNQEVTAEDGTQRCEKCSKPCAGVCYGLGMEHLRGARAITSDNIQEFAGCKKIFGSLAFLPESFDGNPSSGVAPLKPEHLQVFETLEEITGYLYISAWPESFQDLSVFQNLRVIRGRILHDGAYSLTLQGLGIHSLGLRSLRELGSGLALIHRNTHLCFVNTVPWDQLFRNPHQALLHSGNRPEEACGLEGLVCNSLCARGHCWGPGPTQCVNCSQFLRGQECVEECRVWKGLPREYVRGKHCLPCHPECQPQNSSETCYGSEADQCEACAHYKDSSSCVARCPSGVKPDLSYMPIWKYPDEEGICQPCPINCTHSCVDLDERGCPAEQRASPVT
A general note: In SPR one partner is held on a chip, and binding of the other changes the refractive index at the surface.

Series [5] concerns the target T1, human HER2 (23-652). Nature of the series: Surface plasmon resonance (SPR) for assessment of peptide affinity, human HER2. The class given is binding. Further details: towards human HER2 (23-652) and mouse HER2 (23-653); made in house. Particulars: SPR, human HER2 extracellular domain, 25° C., 1:1 binding model; read-out: huHER2-SPR-ONC KD. The method in brief:
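Binding kinetics fitted from sensorgrams with 280 s peptide association then 3000 s dissociation (30 uL/min), using HER2 (23-652) either directly immobilized (SA/CM5) or anti-Fc-captured; 3 M magnesium chloride used for regeneration.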

The target of another series is human HER3 (Homo sapiens, UniProt P21860). Nature of the series: SPR selectivity over close protein homologs, HER3. It counts as binding. To be noted: protein homolog immobilized on a CM5 chip.
The target in a further series is human HER4 (Homo sapiens, UniProt Q15303). Nature of the series: SPR selectivity over close protein homologs, HER4. The class given is binding. Particulars: protein homolog immobilized on a CM5 chip.
Series [6] relates to subcutaneous JimT1 tumors. Further details: species or system Nu (NCr)-Foxnlnu-homozygous mice. To be noted: mouse, in vivo, iv. The method, then: Biodistribution studies were performed at Minerva Imaging. All animal experimentation was carried out under a license approved by the National Animal Experiments Inspectorate under the Ministry of Environment and Food of Denmark, and further approved by the Novartis Animal Welfare Office. Biodistribution studies were performed in Nu (NCr)-Foxnlnu-homozygous mice bearing subcutaneous JimT1 tumors. Mice were subcutaneously implanted with 2×10^6 JimT1 cells into right flank. The biodistribution studies were typically performed when tumors were approximately 200 mm^3 in volume. Compounds according to Examples H1 and H2 were prepared as described in the radiochemistry part (Section 9). Animals were single dose administered with an activity concentration of 4 MBq/nmol per animal. The biodistribution of the compounds was assessed using conventional ex vivo biodistribution at different time points (1, 4, 24 and 72 hrs) after intravenous injection of Lu-177 labelled compounds. Mice were euthanized and organs were collected, weighed, and placed inside counting vials. Organ uptake was assessed by gamma counting using an automated gamma counter for 60 seconds immediately after tissue collection. Tissue counts and injected doses for individual animals were decay-corrected to the time of injection. […] Results expressed as a percentage of injected dose per gram of the tissue (% ID/g).

Series [7] is classed as physicochemical. Here is the method: Radio-HPLC Analytical Method: Eluent A: Water+0.1% TFA; Eluent B: ACN+0.1% TFA; Column temperature: 25° C.; Flow: 1.0 mL/min; Column: […] Gradient: hold 10% B for 1 min, from 10 to 80% B in 8 min, hold 80% B for 2 min, from 80 to 15% B in 1 min. The initial radiochemical purity of [^68Ga]Ga-labeled compounds was analyzed by radio-HPLC and the stability in solution at 24° C. was evaluated 4 h after the end of synthesis by radio-HPLC.

Series [8] has as its target T3, human HER2 (23-652), biotinylated, His tag, Avi tag (human, UniProt P04626 23-652, biotin (Avi tag)).
T3 construct: range 23-652; TR-FRET used the in-house 23-652 protein; also called huHER2; human epidermal growth factor receptor 2; not shown: His tag and Avi tag, said to be at the N-terminus for the TR-FRET protein
Nature of the series: TR-FRET competition vs Cy5 peptide probe.

In series [9] the target is T4, mouse HER2 (23-653), biotinylated, His tag, Avi tag (mouse, UniProt P70424 23-653, biotin (Avi tag)).
T4 construct: range 23-653; in-house protein expressed in mammalian cells; also called moHER2; not shown: His tag and Avi tag, said to be at the N-terminus for the TR-FRET protein
In words: TR-FRET competition vs Cy5 peptide probe.

The target of series [10] is T3, human HER2 (23-652), biotinylated, His …. Nature of the series: SPR, HER2 on chip, 25 C.
Series [11] addresses T4, mouse HER2 (23-653), biotinylated, His …. In words: SPR, HER2 on chip, 25 C.
The target of series [12] is human HER2 (23-652), biotinylated, His tag, Avi tag (human) (UniProt P04626). Nature of the series: TR-FRET competition vs Cy5 peptide probe; TR-FRET competition, IC50.
Series [13] has as its target mouse HER2 (23-653), biotinylated, His tag, Avi tag (mouse) (UniProt P70424). In words: SPR, HER2 on chip, 25 C.

For orientation: Kd means the free concentration of one partner at which half of the binding sites on the other are occupied at equilibrium, for simple one-to-one binding. As usually defined, the IC50 is the concentration that gives 50% inhibition.

Sequence of human EGFR (P00533 25-1210): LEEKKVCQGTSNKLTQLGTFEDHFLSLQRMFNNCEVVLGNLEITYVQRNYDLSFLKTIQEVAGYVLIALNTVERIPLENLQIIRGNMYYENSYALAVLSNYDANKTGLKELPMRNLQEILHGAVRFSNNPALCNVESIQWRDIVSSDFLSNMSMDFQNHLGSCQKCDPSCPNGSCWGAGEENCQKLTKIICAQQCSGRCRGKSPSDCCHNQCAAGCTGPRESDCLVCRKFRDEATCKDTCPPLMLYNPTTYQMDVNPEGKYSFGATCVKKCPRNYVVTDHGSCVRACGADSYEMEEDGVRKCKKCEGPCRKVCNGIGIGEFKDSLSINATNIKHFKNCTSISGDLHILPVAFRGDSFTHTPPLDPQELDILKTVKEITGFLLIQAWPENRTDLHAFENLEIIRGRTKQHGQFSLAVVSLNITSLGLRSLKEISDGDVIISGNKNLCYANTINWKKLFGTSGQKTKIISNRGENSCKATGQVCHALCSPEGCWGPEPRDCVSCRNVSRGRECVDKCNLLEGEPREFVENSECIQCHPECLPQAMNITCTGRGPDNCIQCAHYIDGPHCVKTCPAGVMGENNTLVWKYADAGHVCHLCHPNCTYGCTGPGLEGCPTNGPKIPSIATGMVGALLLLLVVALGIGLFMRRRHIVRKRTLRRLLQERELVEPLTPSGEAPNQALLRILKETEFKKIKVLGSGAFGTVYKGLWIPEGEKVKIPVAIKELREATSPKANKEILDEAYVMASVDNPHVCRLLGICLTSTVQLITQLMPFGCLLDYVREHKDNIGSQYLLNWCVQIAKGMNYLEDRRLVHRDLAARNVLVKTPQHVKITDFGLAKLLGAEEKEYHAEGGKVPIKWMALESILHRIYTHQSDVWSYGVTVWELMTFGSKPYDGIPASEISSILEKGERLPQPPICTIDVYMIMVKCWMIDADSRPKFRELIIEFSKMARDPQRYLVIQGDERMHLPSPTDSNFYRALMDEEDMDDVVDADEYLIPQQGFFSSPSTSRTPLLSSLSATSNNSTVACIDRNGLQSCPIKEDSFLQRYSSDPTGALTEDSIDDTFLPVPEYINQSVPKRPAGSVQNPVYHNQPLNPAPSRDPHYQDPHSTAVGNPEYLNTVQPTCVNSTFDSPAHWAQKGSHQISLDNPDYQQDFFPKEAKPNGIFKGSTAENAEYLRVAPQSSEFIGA
Sequence of human HER3 (P21860 20-1342): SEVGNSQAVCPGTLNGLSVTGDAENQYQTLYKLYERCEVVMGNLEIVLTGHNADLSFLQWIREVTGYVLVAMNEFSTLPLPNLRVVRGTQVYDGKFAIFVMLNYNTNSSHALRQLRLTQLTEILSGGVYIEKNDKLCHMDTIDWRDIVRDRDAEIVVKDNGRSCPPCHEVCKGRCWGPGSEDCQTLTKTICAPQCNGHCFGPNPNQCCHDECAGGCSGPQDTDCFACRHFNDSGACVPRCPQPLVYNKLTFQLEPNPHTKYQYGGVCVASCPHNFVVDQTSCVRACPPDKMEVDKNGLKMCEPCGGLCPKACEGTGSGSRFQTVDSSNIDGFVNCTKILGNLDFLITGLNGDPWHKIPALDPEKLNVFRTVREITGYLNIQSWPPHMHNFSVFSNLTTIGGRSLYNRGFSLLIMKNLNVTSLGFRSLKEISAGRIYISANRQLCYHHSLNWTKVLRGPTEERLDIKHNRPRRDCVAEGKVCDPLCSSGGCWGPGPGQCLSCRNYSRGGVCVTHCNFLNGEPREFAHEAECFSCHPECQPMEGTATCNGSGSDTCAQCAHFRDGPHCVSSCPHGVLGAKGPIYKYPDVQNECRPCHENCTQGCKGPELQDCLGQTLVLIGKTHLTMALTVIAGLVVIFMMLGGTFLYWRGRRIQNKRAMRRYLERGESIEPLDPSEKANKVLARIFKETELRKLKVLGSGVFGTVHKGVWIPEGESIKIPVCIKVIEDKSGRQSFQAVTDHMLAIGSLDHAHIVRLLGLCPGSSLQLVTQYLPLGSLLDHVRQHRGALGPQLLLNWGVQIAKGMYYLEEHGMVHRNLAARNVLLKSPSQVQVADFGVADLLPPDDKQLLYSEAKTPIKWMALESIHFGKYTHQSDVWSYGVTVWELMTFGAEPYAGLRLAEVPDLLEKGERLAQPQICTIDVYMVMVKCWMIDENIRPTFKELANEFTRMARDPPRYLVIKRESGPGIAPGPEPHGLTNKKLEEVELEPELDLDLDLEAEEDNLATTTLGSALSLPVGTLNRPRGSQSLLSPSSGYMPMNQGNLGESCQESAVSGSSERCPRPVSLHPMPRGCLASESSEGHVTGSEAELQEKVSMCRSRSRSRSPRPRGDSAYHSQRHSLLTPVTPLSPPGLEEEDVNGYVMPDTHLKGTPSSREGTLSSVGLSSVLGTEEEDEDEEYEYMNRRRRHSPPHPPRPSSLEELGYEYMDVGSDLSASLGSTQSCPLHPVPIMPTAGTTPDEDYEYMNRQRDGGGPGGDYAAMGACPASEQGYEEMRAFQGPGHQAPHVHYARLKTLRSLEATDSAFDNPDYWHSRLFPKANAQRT
Sequence of human HER4 (Q15303 26-1308): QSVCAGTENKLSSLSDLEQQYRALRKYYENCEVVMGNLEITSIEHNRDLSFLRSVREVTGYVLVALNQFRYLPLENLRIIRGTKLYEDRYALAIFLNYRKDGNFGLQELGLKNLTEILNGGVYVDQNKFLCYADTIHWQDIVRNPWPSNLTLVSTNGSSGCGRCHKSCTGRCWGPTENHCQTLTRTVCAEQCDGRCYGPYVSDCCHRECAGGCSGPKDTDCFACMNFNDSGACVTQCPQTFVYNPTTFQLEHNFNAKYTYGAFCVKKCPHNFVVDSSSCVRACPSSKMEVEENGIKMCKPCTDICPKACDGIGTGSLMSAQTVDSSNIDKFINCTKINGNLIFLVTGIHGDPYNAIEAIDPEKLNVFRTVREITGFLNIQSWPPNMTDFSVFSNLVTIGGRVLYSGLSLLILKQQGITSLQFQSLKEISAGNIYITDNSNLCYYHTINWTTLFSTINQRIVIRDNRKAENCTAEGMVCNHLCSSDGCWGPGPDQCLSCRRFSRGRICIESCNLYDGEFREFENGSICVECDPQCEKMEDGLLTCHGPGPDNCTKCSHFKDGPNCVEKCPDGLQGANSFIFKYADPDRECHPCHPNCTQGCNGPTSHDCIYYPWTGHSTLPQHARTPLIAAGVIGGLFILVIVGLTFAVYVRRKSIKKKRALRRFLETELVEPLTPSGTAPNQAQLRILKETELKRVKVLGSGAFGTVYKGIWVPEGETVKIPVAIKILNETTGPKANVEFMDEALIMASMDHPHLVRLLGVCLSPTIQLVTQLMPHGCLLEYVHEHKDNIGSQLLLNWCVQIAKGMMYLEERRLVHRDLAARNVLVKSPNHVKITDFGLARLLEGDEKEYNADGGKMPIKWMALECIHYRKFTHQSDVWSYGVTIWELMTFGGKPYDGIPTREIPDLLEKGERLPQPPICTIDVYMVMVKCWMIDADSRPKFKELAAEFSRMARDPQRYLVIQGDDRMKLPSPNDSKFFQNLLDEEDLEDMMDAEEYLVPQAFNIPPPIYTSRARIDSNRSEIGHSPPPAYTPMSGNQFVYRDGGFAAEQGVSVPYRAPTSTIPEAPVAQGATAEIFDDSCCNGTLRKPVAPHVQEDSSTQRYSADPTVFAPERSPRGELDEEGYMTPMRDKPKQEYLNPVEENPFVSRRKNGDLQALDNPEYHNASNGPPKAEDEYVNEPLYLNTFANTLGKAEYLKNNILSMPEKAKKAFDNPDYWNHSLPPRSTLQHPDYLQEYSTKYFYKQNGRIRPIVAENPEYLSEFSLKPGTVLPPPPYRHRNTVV
T4 sequence (P70424 23-653 limits assumed): as the sequence (P70424 23-653) above
Sequence of mouse HER2 (23-653), biotinylated, His tag, Avi tag (mouse) (P70424 23-653 limits assumed): as the sequence (P70424 23-653) above

Take `CC(=O)NCCCC[C@H]1C(=O)N[C@@H](Cc2c[nH]c3ccc(O)cc23)C(=O)N[C@@H](Cc2c[nH]c3ccccc23)C(=O)N[C@@H](C2CC2)C(=O)N(C)[C@H](C(=O)N(C)[C@@H](Cc2ccc(F)cc2)C(=O)N[C@@H](CCCCNC(=O)CN2CCN(CC(=O)O)CCN(CC(=O)O)CCN(CC(=O)O)CC2)C(N)=O)CNC(=O)CCC[C@H](NC(C)=O)C(=O)N[C@@H](Cc2ccc(O)cc2)C(=O)N[C@@H](CO)C(=O)N(C)[C@@H](CCc2ccccc2)C(=O)N1C` [Example B1]: the equilibrium dissociation constant (Kd) on human EGFR was more than 6000 nM; in series [1], more than 6000 nM; on mouse HER2 (23-653) [4], less than 0.1 nM; at human HER2 (23-652) [5] it was less than 0.1 nM; on human HER3, more than 6000 nM; on human HER4, more than 6000 nM. Also, the half-maximal inhibitory concentration (IC50) on human HER2 (23-652) [2] and at mouse HER2 (23-653) [3] was less than 0.1 nM throughout.

`COCCOCCOCCOCCOCCOCCOCCOCCOCCOCCOCCOCCC(=O)N[C@H]1CCCC(=O)NC[C@@H](C(=O)N(C)[C@@H](Cc2ccc(F)cc2)C(=O)N[C@@H](CCCCNC(=O)CN2CCN(CC(=O)O)CCN(CC(=O)O)CCN(CC(=O)O)CC2)C(N)=O)N(C)C(=O)[C@H](C2CC2)NC(=O)[C@H](Cc2c[nH]c3ccccc23)NC(=O)[C@H](Cc2c[nH]c3ccc(O)cc23)NC(=O)[C@H](CCCCNC(C)=O)N(C)C(=O)[C@H](CCc2ccccc2)N(C)C(=O)[C@H](CO)NC(=O)[C@H](Cc2ccc(O)cc2)NC1=O` [Example B2]: the Kd on human EGFR is more than 6000 nM; in [1], more than 6000 nM; on mouse HER2 (23-653) [4], 0.1 nM; on human HER2 (23-652) [5], less than 0.1 nM; on human HER3, more than 6000 nM; at human HER4, more than 6000 nM. Also, the IC50 is less than 0.1 nM at human HER2 (23-652) [2] and 0.2 nM on mouse HER2 (23-653) [3].

For `CC(=O)NCCCC[C@H]1C(=O)N[C@@H](Cc2c[nH]c3ccc(O)cc23)C(=O)N[C@@H](Cc2c[nH]c3ccccc23)C(=O)N[C@@H](C2CC2)C(=O)N(C)[C@H](C(=O)N(C)[C@@H](Cc2ccc(F)cc2)C(=O)N[C@@H](CCCCNC(=O)CN2CCN(CC(=O)O)CCN(CC(=O)O)CCN(CC(=O)O)CC2)C(N)=O)CNC(=O)CCC[C@H](NC(C)=O)C(=O)N[C@H](Cc2ccc(O)cc2)C(=O)N[C@H](CO)C(=O)N(C)[C@@H](CCc2ccccc2)C(=O)N1C` [Example B4], the Kd (on human EGFR; in [1]; at mouse HER2 (23-653) [4]; at human HER2 (23-652) [5]; at human HER3; at human HER4) was more than 6000 nM each time. Also, the half-maximal inhibitory concentration (IC50) at human HER2 (23-652) [2] and on mouse HER2 (23-653) [3] was more than 1000 nM throughout.

Regarding `COCCOCCOCCOCCOCCOCCOCCOCCOCCOCCOCCOCCC(=O)N[C@H]1CCCC(=O)NC[C@@H](C(=O)N(C)[C@@H](Cc2ccc(F)cc2)C(=O)N[C@@H](CCCCNC(=O)CN2CCN(CC(=O)O)CCN(CC(=O)O)CCN(CC(=O)O)CC2)C(N)=O)N(C)C(=O)[C@H](C2CC2)NC(=O)[C@H](Cc2c[nH]c3ccccc23)NC(=O)[C@H](Cc2c[nH]c3ccc(O)cc23)NC(=O)[C@H](CCCCNC(C)=O)N(C)C(=O)[C@H](CCc2ccccc2)N(C)C(=O)[C@H](CO)NC(=O)[C@H](Cc2ccc(O)cc2)NC1=O` [Example H1, Example B2 labelled with ^177Lu, metal not drawn], in series [6], the tumor/normal tissue ratios result is “favorable tumor/normal tissue ratios”.

On to `COCCOCCOCCOCCOCCOCCOCCOCCOCCOCCOCCOCCC(=O)N[C@H]1CCCC(=O)NC[C@@H](C(=O)N(C)[C@@H](Cc2ccc(F)cc2)C(=O)N[C@@H](CCCCNC(=O)CN2CCN(CC(=O)O)CCN(CC(=O)O)CCN(CC(=O)O)CC2)C(N)=O)N(C)C(=O)[C@H](C2CC2)NC(=O)[C@H](Cc2c[nH]c3ccccc23)NC(=O)[C@H](Cc2c[nH]c3ccc(O)cc23)NC(=O)[C@H](CCCCNC(C)=O)N(C)C(=O)[C@H](CCc2ccccc2)N(C)C(=O)[C@H](CO)NC(=O)[C@H](Cc2ccc(O)cc2)NC1=O` [Example I1, Example B2 labelled with ^68Ga, metal not drawn], for which the “Radiochemical purity by radio-HPLC, stability in solution, 4 h” value in series [7] is on record as 97.2%.

On to `CC(=O)NCCCC[C@H]1C(=O)N[C@@H](Cc2c[nH]c3ccc(O)cc23)C(=O)N[C@@H](Cc2c[nH]c3ccccc23)C(=O)N[C@@H](C2CC2)C(=O)N(C)[C@H](C(=O)N(C)[C@@H](Cc2ccc(F)cc2)C(=O)N[C@@H](CCCCNC(=O)CN2CCN(CC(=O)O)CCN(CC(=O)O)CCN(CC(=O)O)CC2)C(N)=O)CNC(=O)CCC[C@H](NC(C)=O)C(=O)N[C@@H](Cc2ccc(O)cc2)C(=O)N[C@@H](CO)C(=O)N(C)[C@@H](CCc2ccccc2)C(=O)N1C` [Example I2, Example B1 labelled with ^68Ga, metal not drawn], for which the “Radiochemical purity by radio-HPLC, stability in solution, 4 h” value in [7] amounted to 97.2%.

Regarding Ac-EY[Dap](DOTA)[NMehPhe][NMeK](Ac)[Trp(5-OH)]W[aThr][NMeDap][NMePhe(4-F)]K(X4)-NH2 (lactam 1-9; also: DOTA complexed with 175Lu) [Example C26], the IC50 came to 4.2 nM in [8] and 17 nM in series [9]. Further, the equilibrium dissociation constant (Kd) was 5.1 nM in series [10] and 11 nM in series [11].

Ac-[Aad]YS[NMehPhe][MeKAc][Trp(5-OH)]A[CproG][NMeDap][NMePhe(4-F)]K(DOTA)-NH2 (lactam 1-9; reading uncertain; also: DOTA complexed with 175Lu) [Example C32]: in [12], the half-inhibitory concentration (IC50) is 9820 nM.

In [13], H-CYS[NMehPhe][NMeS][Trp(5-OH)]W[cProG][NMeC][NMePhe(4-F)]-NH2 (disulfide 1-9) [Example A54] showed an equilibrium dissociation constant (Kd) of 5300 nM.
